In US20160355530A1, “HEPATITIS C INHIBITORS AND USES THEREOF” (AbbVie Inc., priority 2010, published 2016):
Read-outs that look alike come from different tables or passages of the source.

What was measured:
[1] = biological target: T1, HCV NS5B polymerase 1b BK strain (Hepatitis C virus genotype 1b, UniProt P26663); experiment: HCV NS5B polymerase enzymatic inhibition assay, strain 1b BK; format: biochemical; settings: enzyme, strain 1b BK; read-out: HCV Polymerase Strain 1b BK IC50
T1 construct: six-histidine tag; made in house; host or cells: E. coli
Experimental: (§1) Purified HCV NS5B polymerase enzymes were used for polymerase inhibition assays. All recombinant HCV polymerases contained the first 570 amino acids of the 591 amino acid native protein sequence and a six-histidine tag at the N-terminus or C-terminus to facilitate purification by affinity chromatography. The DNA nucleotide sequence for the HCV polymerase 1b BK strain was codon optimized for expression in E. coli. A synthetic gene was prepared from a series of overlapping oligonucleotides that were filled in using a DNA polymerase and amplified by PCR. The patient isolate HCV polymerases were cloned by RT-PCR methods using HCV RNA extracted from the serum of infected subjects obtained from ProMedDx and BioCollections (genotypes 2a, 2b, 3a, and 4a). Laboratory strains were cloned from plasmid DNA (1a-H77 or 1a-H77-C316Y) or from existing replicon cells (1b Rice). In all cases the amplified DNA was cloned into a protein expression vector (typically a pET vector from Novagen) and then multiple clones were sequenced to identify one whose NS5B sequence agreed with the population sequence. This sequence-confirmed clone was then transfected into E. coli for protein expression and purification. E. coli cultures were grown to a maximum optical density (OD) of 2-3 and then induced with 0.4 mM isopropyl beta-D-thiogalactopyranoside (IPTG) and grown for 20 hours at 20° C.
(§2) Proteins were purified using nickel affinity chromatography, and additional column steps were added including, ion exchange, size exclusion, hydrophobic ion, and poly-U affinity chromatography, as needed, depending on the sample being purified. The template RNA used in the polymerase enzymatic assay was a 2.1 kb construct that corresponds to the 3′-end of an HCV genotype 1b negative strand RNA.
(§3) The reaction was initiated by the addition of 20 μM CTP, 20 μM ATP, 0.284 μM (0.5 μCi) of 5,6-[^3H] UTP, 5 nM template RNA and 0.1 U/μL RNase inhibitor (RNasin, Promega), and allowed to proceed for three hours at 30° C. The final reaction volume was 50 μL. The reaction was terminated by the addition of 50 uL of 4 mM spermine in 10 mM Tris-HCl, pH 7.5, 1 mM EDTA. The quenched reaction was allowed to incubate for at least 15 minutes at room temperature, and then the precipitated RNA was captured by filtration through a glass fiber filter (GF/B, Millipore) in a 96 well format. The filter plate was washed five times with 200 μL of 2 mM spermine, 10 mM Tris-HCl, pH 8.0, 1 mM EDTA, and two times with ethanol. After drying thoroughly in air, 30 μL of Microscint-20 scintillation cocktail (Perkin Elmer) was added to each well, and the retained cpm were determined by scintillation counting. IC50 values were determined by nonlinear regression.
(§4) % Inhibition=100*[[I]/([I]+[IC50])] equation 1
(§5) V=kcat[S]/2(Km+[S])*(sqrt((IC50+I−E)̂2+(4*IC50*E))−(IC50+I−E)) equation 2

[2] = test system: HCV NS5B polymerase 1a-H77-C316Y; experiment: biochemical; set-up: species or system HCV genotype 1a; settings: ratio of enzyme IC50s, 1a H77-C316Y / 1a H77
Experimental: as §1, §2, §3, §4, §5

[3] = biological target: T2, HCV NS5B polymerase 1a-H77-C316Y (Hepatitis C virus genotype 1a, UniProt P27958, C2736Y); experiment: biochemical; set-up: species or system HCV genotype 1a
T2 construct: six-histidine tag; made in house; host or cells: E. coli
Experimental: as §1, §2, §3, §4, §5

[4] = biological target: T3, HCV NS5B polymerase 1a-H77 (Hepatitis C virus genotype 1a, UniProt P27958); experiment: biochemical; set-up: species or system HCV genotype 1a; settings: enzyme, strain 1a H77; read-out: HCV Polymerase Strain 1a H77 IC50
T3 construct: six-histidine tag; made in house; host or cells: E. coli
Experimental: as §1, §2, §3, §4, §5

[5] = test system: HCV 1a-H77 subgenomic replicon; experiment: microbe, parasite or virus in culture; format: cell-based, HCV genotype 1a; settings: Hepatitis C virus, stable replicon
[6] = test system: HCV 1b-BB7 subgenomic replicon; experiment: microbe, parasite or virus in culture; format: cell-based, HCV genotype 1b; settings: Hepatitis C virus, stable replicon
[7] = 5% FBS, absence of human plasma, read-out: Stable Replicon 1a H77 5% FBS EC50
[8] = strain 1a H77, 5% FBS + 40% human plasma, read-out: 1a H77 5% FBS + 40% Human Plasma EC50
[9] = strain 1a H77, 5% FBS, no human plasma, read-out: 1a H77 5% FBS EC50
[10] = strain 1a H77, 5% FBS, read-out: 1a H77 5% FBS EC50
[11] = strain 1b BB7, 5% FBS + 40% human plasma, read-out: 1b BB7 5% FBS + 40% Human Plasma EC50
[12] = strain 1b BB7, 5% FBS, no human plasma, read-out: 1b BB7 5% FBS EC50
[13] = strain 1b BB7, 5% FBS, read-out: 1b BB7 5% FBS EC50

T1 sequence (P26663 2420-2989): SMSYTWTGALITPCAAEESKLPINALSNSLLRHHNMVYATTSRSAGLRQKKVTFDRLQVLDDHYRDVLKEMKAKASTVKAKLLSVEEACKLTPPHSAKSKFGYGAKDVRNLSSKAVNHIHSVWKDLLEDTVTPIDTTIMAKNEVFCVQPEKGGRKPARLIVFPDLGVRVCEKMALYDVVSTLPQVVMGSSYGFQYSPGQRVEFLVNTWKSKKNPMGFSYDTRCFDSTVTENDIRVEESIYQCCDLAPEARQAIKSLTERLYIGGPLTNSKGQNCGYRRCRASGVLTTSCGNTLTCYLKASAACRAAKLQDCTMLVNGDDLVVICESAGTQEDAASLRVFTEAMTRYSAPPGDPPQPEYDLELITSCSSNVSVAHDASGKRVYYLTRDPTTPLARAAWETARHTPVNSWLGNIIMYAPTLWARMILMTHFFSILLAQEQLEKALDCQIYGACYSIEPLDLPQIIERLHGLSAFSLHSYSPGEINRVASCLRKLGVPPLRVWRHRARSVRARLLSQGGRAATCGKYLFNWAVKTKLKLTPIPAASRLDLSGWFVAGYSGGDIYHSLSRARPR
T2 sequence (P27958 2421-2990 C2736Y): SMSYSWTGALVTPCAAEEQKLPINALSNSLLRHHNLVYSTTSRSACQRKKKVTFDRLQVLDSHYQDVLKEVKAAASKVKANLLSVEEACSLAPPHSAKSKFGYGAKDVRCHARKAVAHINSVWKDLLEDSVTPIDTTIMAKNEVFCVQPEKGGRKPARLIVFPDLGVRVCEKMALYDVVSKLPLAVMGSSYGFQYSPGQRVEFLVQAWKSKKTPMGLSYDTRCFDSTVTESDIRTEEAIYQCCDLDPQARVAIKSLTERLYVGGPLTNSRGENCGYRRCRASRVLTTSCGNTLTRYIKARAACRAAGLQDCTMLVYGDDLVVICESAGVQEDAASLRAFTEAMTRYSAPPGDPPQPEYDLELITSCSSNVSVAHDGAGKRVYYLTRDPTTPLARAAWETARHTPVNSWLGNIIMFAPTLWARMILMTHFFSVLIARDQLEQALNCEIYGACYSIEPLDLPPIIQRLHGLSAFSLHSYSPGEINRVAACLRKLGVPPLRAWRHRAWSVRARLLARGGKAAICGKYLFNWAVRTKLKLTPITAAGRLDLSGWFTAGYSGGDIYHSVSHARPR
T3 sequence (P27958 2421-2990): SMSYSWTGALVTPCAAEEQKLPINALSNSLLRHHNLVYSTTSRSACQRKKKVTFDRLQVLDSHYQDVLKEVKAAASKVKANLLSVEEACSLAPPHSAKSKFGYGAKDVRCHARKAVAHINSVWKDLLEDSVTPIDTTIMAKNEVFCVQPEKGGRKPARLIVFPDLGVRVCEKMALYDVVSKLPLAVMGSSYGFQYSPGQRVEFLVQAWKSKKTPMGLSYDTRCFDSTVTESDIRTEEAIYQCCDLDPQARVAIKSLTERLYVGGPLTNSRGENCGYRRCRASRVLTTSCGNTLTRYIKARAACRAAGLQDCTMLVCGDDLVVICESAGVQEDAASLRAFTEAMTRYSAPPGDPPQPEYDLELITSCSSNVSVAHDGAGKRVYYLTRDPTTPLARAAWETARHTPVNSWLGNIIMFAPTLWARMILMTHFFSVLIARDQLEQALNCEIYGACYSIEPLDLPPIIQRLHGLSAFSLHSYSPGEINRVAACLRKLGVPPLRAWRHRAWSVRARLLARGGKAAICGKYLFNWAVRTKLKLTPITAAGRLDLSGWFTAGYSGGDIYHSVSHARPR

Compound	IC50 [1] [nM]	C316Y/1a Fold Resistance [2] [fold]	IC50 [3] [nM]	IC50 [4] [nM]	EC50 [5, 7] [nM]	EC50 [5, 8] [nM]	EC50 [5, 9] [nM]	EC50 [5, 10] [nM]	EC50 [6, 11] [nM]	EC50 [6, 12] [nM]	EC50 [6, 13] [nM]
CC(c1ccccc1)N(c1ccc2c(-c3ncc[nH]3)c(-c3ccccc3)oc2c1)S(C)(=O)=O (centres unmarked) [Example 20, N-[3-(1H-imidazol-2-yl)-2-phenyl-1-benzofuran-6-yl]-N-(1-phenylethyl)methanesulfonamide]	52	5	173	34.9	1000	10000	1000	1000	7300	133	133
CS(=O)(=O)N(Cc1ccccc1)c1ccc2c(-c3ncc[nH]3)c(-c3ccccc3)oc2c1 [Example 21, N-benzyl-N-[3-(1H-imidazol-2-yl)-2-phenyl-1-benzofuran-6-yl]methanesulfonamide]	99	2	90	47.6	3440	–	3440	3440	10000	593	593
CS(=O)(=O)N(Cc1sc(Br)nc1C(F)(F)F)c1ccc2c(-c3ncc[nH]3)c(-c3ccccc3)oc2c1 [Example 22, N-{[2-bromo-4-(trifluoromethyl)-1,3-thiazol-5-yl]methyl}-N-[3-(1H-imidazol-2-yl)-2-phenyl-1-benzofuran-6-yl]methanesulfonamide]	55	1	179	159	2380	–	2380	2380	–	866	866
CC(C)(C)Oc1ncc(-c2ncc(CN(c3ccc4c(-c5ncc[nH]5)c(-c5ccccc5)oc4c3)S(C)(=O)=O)s2)c(OC(C)(C)C)n1 [Example 27, N-{[2-(2,4-di-tert-butoxypyrimidin-5-yl)-1,3-thiazol-5-yl]methyl}-N-[3-(1H-imidazol-2-yl)-2-phenyl-1-benzofuran-6-yl]methanesulfonamide]	99	18	3800	214	866	10000	866	866	5460	75	75
CS(=O)(=O)N(Cc1cnc(-c2c[nH]c(=O)[nH]c2=O)s1)c1ccc2c(-c3ncc[nH]3)c(-c3ccccc3)oc2c1 [Example 29, N-{[2-(2,4-dioxo-1,2,3,4-tetrahydropyrimidin-5-yl)-1,3-thiazol-5-yl]methyl}-N-[3-(1H-imidazol-2-yl)-2-phenyl-1-benzofuran-6-yl]methanesulfonamide]	9	2	7	3	1000	10000	1000	1000	9830	207	207
CS(=O)(=O)N(Cc1cccc(C(F)(F)F)c1)c1ccc2c(-c3ncc[nH]3)c(-c3ccccc3)oc2c1 [Example 32, N-[3-(1H-imidazol-2-yl)-2-phenyl-1-benzofuran-6-yl]-N-[3-(trifluoromethyl)benzyl]methanesulfonamide]	80.1	1	147	132	2370	–	2370	2370	79600	599	599
CCOC(=O)CN(c1cc2oc(-c3ccc(F)cc3)c(-c3ncc[nH]3)c2cc1C1CC1)S(C)(=O)=O [Example 33, ethyl N-[5-cyclopropyl-2-(4-fluorophenyl)-3-(1H-imidazol-2-yl)-1-benzofuran-6-yl]-N-(methylsulfonyl)glycinate]	152	181	1900	10.5	163	8840	163	163	4810	200	200
CS(=O)(=O)N(CC1CCCC1)c1cc2oc(-c3ccc(F)cc3)c(-c3ncc[nH]3)c2cc1C1CC1 [Example 34, N-(cyclopentylmethyl)-N-[5-cyclopropyl-2-(4-fluorophenyl)-3-(1H-imidazol-2-yl)-1-benzofuran-6-yl]methanesulfonamide]	22	30	149	5	70	1290	70	70	854	65	65
CS(=O)(=O)N(CCc1ccccc1)c1cc2oc(-c3ccc(F)cc3)c(-c3ncc[nH]3)c2cc1C1CC1 [Example 35, N-[5-cyclopropyl-2-(4-fluorophenyl)-3-(1H-imidazol-2-yl)-1-benzofuran-6-yl]-N-(2-phenylethyl)methanesulfonamide]	7	23	113	4.9	102	1580	102	102	1130	51	51
CS(=O)(=O)N(CC(N)=O)c1cc2oc(-c3ccc(F)cc3)c(-c3ncc[nH]3)c2cc1C1CC1 [Example 36, N^2-[5-cyclopropyl-2-(4-fluorophenyl)-3-(1H-imidazol-2-yl)-1-benzofuran-6-yl]-N^2-(methylsulfonyl)glycinamide]	188	428	3400	7.9	301	2140	301	301	1120	180	180
CC(C)CCCN(c1cc2oc(-c3ccc(F)cc3)c(-c3ncc[nH]3)c2cc1C1CC1)S(C)(=O)=O [Example 40, N-[5-cyclopropyl-2-(4-fluorophenyl)-3-(1H-imidazol-2-yl)-1-benzofuran-6-yl]-N-(4-methylpentyl)methanesulfonamide]	19	11	70	6.5	23	525	23	23	445	23	23
CS(=O)(=O)N(CCCc1ccccc1)c1cc2oc(-c3ccc(F)cc3)c(-c3ncc[nH]3)c2cc1C1CC1 [Example 41, N-[5-cyclopropyl-2-(4-fluorophenyl)-3-(1H-imidazol-2-yl)-1-benzofuran-6-yl]-N-(3-phenylpropyl)methanesulfonamide]	16	12	58	5	73	911	73	73	364	40	40
